Earlier results in patent US20070134273A1, “Composition and method for the treatment of carcinoma” (priority 2004, published 2007).
Where two headings read alike, the source gives them in different places.

Key:
[1] = test system: peripheral blood mononuclear cells, monocytes, and dendritic cells; conditions: in vitro and in vivo, versus imiquimod (Aldara R-837)
[2] = transurethral resection plus intravesical agent versus transurethral resection alone

SMILES	studies with a significant reduction in tumor progression (bladder cancer; [2])	studies with a significant reduction in tumor recurrences (bladder cancer; [2])	studies with a significant reduction in tumor progression (bladder cancer; in vivo)	studies with a significant reduction in tumor recurrences (bladder cancer; in vivo)	potency in inducing cytokines relative to imiquimod [1]
COc1cccc2c1C(=O)c1c(O)c3c(c(O)c1C2=O)C[C@@](O)(C(=O)CO)C[C@@H]3O[C@H]1C[C@H](N)[C@H](O)[C@H](C)O1 [doxorubicin]	0 of 2	2 of 4			
CO[C@@]12[C@H](COC(N)=O)C3=C(C(=O)C(C)=C(N)C3=O)N1C[C@@H]1N[C@@H]12 [mitomycin]	0 of 2	2 of 5			
S=P(N1CC1)(N1CC1)N1CC1 [thiotepa]			0 of 3	6 of 10	
CCOCc1nc2c(N)nc3ccccc3c2n1CC(C)(C)O [Resiquimod, 4-amino-2-ethoxymethyl-α, α-dimethyl-1H-imidazo[4,5-c]quinoline-1-ethanol]					about 100 times
